{"source": "paper PMC2864424", "about": "(Current Chemical Genomics, 2010)", "origin": "cited, not measured here", "key": {"[1]": {"test_system": "OATP1B1", "conditions": "cited from earlier work"}, "[2]": {"test_system": "OATP1B3", "conditions": "concentrations up to 10 μM; cited from earlier work"}}, "data": [{"compound": "CC1(C)C(/C=C/C=C/C=C/C=C2\\N(CCCCS(=O)(=O)O)c3ccc4ccccc4c3C2(C)C)=[N+](CCCCS(=O)(=O)[O-])c2ccc3ccccc3c21", "note": "[indocyanine green]", "values": [{"measurement": "effect on OATP1B1-mediated estradiol-17β-glucuronide transport", "setting": "[1]", "value": "specific inhibitor"}, {"measurement": "effect on OATP1B3-mediated estradiol-17β-glucuronide transport", "setting": "[2]", "value": "not affecting"}]}]}
